According to ChEMBL document CHEMBL3608236, “Understanding the chemistry behind the antioxidant activities of butylated hydroxytoluene (BHT): a review” (Eur J Med Chem, 2015):
Values after ≈ are worked out from the molar mass of the structure shown.

Test: Antioxidant activity assessed as hydrogen peroxide scavenging activity
Assay type: physicochemical

Q: With `Oc1ccc(-c2nnc(S)n2/N=C/c2ccccc2)cc1` as the compound, how does the IC50 read?
A: 24 µg/mL (≈ 81 µM)

Q: Which IC50 does the source give for `Oc1ccc(-c2nnc(S)n2/N=C/c2cccc(O)c2)cc1` here?
A: 20 µg/mL (≈ 64 µM)

Q: Which IC50 does the source give for `Oc1ccc(-c2nnc(S)n2/N=C/c2ccccc2Cl)cc1` here?
A: 60 µg/mL (≈ 181 µM)

Q: For `O=[N+]([O-])c1ccccc1/C=N/n1c(S)nnc1-c1ccc(O)cc1`, which IC50 is on record?
A: 32 µg/mL (≈ 93.7 µM)

Q: With `O=[N+]([O-])c1cccc(/C=N/n2c(S)nnc2-c2ccc(O)cc2)c1` as the compound, how does the IC50 read?
A: 38 µg/mL (≈ 111 µM)
